Assay results: publication PMC10540216, “Activity Guided Azide-methyllysine Photo-trapping for Substrate Profiling of Lysine Demethylases” (Journal of the American Chemical Society, 2023)
“Also recorded” adds a separate entry of the source. Where no end group is shown, it is not given here. [ ]: non-standard residue; d: D form. Lys(Me3) = C[N+](C)(C)CCCC[C@H](N)C(=O)O

Test system: KDM4A-E
Assay: Demethylase activity of KDM4 subfamily on peptide substrates (MALDI-TOF MS), result worded for KDM4A-E together
Format: biochemical, human
Conditions: wild-type KDM4A-E, 10 µM enzyme, 10 µM peptide, 1 mM 2OG, 50 mM Tris pH 8, 37°C, three hours

“ALMLENLQ[Lys(Me3)]HSTPHAAF [compound 9, ACINUS-K113me3 peptide]” was tested, and the “demethylation by KDM4A-E” value was “failed to undergo demethylation by KDM4A-E”.
For “GGATSSAR[Lys(Me3)]NRWDEPTK [compound 12, SF3B1-K290me3 peptide]”, the “demethylation by KDM4A-E” value was “failed to undergo demethylation; also recorded: not recognized as KDM4 substrates”.
“RSASSNSR[Lys(Me3)]SLSPGVSR [compound 10, Acinus-K654me3 peptide]” was tested, and the “demethylation by KDM4A-E” value was “demethylated by multiple KDM4s; also recorded: robust demethylation”.
In the case of “MPSASASR[Lys(Me3)]SQEKPREI [compound 14, SYDC-K9me3 peptide]”, the “demethylation by KDM4A-E” value is reported as “not recognized as KDM4 substrates”.
With “SRAHSSHLKme3SKKGQSTS [compound 18, P53-K370me3 peptide]” the “demethylation by KDM4A-E” value was “failed to undergo demethylation by KDM4A-E”.
“KGPDEAKI[Lys(Me3)]ALLERTGY [compound 11, hnRNPQ-K125me3 peptide]” was tested, and the “demethylation by KDM4A-E” value was “failed to undergo demethylation by KDM4A-E; also recorded: not recognized as KDM4 substrates”.
For “FNRMPIAR[Lys(Me3)]IIKDGEQH [compound 8, AIFM1-K590me3 peptide]”, the “demethylation by KDM4A-E” value was “failed to undergo demethylation; also recorded: not recognized as KDM4 substrates”.
With “AEVTRTAR[Lys(Me3)]QSAQKRVL [compound 16, Nup107-K25me3 peptide]” the “demethylation by KDM4A-E” value was “demethylated by multiple KDM4s; also recorded: robust demethylation”.
In the case of “WENTLHTL[Lys(Me3)]QRQLTSYV [compound 17, NUP107-K305me3 peptide]”, the “demethylation by KDM4A-E” value is reported as “failed to undergo demethylation by KDM4A-E”.

Test system: KDM4A-I71AzF
Assay: CASI: photo-crosslinking with HEK293T cell extracts, StrepTactin enrichment and LC-MS/MS proteomics;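 further: lysates from HEK293T cells pretreated with a KDM4 inhibitor to raise proteome methylation, affinity-purified after ±UV, gel-resolved, trypsin-digested, with exclusive unique peptides per protein averaged per condition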
Format: binding, human
Conditions: sheet "Final results but with 0.01"

Going from MPRI_HUMAN to TCPA_HUMAN, the “Fold change (+UV/-UV)” value rises from 0 to 2.

Going from GRP78_HUMAN to DHSA_HUMAN, the “Fold change (+UV/-UV)” value rises from 0.5556 to 1.

Going from RU17_HUMAN to YLPM1_HUMAN, the “Fold change (+UV/-UV)” value falls from 1 to 0.6923.

Going from NU214_HUMAN to UGGG1_HUMAN, the “Fold change (+UV/-UV)” value falls from 2 to 1.

Going from DESP_HUMAN to ECHA_HUMAN, the “Fold change (+UV/-UV)” value rises from 0.2222 to 1.

Going from TBA1B_HUMAN to DHX9_HUMAN, the “Fold change (+UV/-UV)” value falls from 0.8182 to 0.7895.

Going from FILA2_HUMAN to PYR1_HUMAN, the “Fold change (+UV/-UV)” value falls from 0.75 to 0.125.

First: VIME_HUMAN
Second: DHE3_HUMAN
The “Fold change (+UV/-UV)” value of the first is lower: 0.875 for the first, 1.727 for the second.

Going from INT3_HUMAN to SYEP_HUMAN, the “Fold change (+UV/-UV)” value falls from 2 to 0.6667.

Compared with TCPE_HUMAN, SYNM_HUMAN is higher in “Fold change (+UV/-UV)” value: 0.3333 for the first, 1 for the second.

Going from SP16H_HUMAN to PTBP1_HUMAN, the “Fold change (+UV/-UV)” value rises from 0.2857 to 1.2.

Compared with MYH9_HUMAN, PO210_HUMAN is higher in “Fold change (+UV/-UV)” value: 0 for the first, 0.1538 for the second.

First: IF4G1_HUMAN
Second: KRT82_HUMAN
The “Fold change (+UV/-UV)” value of the first is lower: 0 for the first, 200 for the second.

First: CMC2_HUMAN
Second: ATPB_HUMAN
The “Fold change (+UV/-UV)” value of the first is lower: 0.5 for the first, 0.5789 for the second.

First: HORN_HUMAN
Second: MAOM_HUMAN
The “Fold change (+UV/-UV)” value of the first is lower: 0 for the first, 1.714 for the second.

First: FAS_HUMAN
Second: KCRU_HUMAN
The “Fold change (+UV/-UV)” value of the first is lower: 0.3889 for the first, 200 for the second.

First: SSRP1_HUMAN
Second: LAMP2_HUMAN
The “Fold change (+UV/-UV)” value of the first is lower: 0 for the first, 2 for the second.

First: TCPZ_HUMAN
Second: DOCK7_HUMAN
The “Fold change (+UV/-UV)” value of the first is higher: 1 for the first, 0.8 for the second.

Compared with TLN1_HUMAN, CLPX_HUMAN is higher in “Fold change (+UV/-UV)” value: 0 for the first, 1.5 for the second.

First: K2C4_HUMAN
Second: G3P_HUMAN
The “Fold change (+UV/-UV)” value of the first is higher: 10 for the first, 0.5 for the second.

First: CLH1_HUMAN
Second: TCPG_HUMAN
The “Fold change (+UV/-UV)” value of the first is lower: 1 for the first, 4 for the second.

Compared with G3BP1_HUMAN, TERA_HUMAN is higher in “Fold change (+UV/-UV)” value: 0 for the first, 1.125 for the second.

Going from NUMA1_HUMAN to U5S1_HUMAN, the “Fold change (+UV/-UV)” value rises from 0 to 0.6.

First: CHD4_HUMAN
Second: GRP75_HUMAN
The “Fold change (+UV/-UV)” value of the first is lower: 0.3333 for the first, 0.7931 for the second.

First: HSP71_HUMAN
Second: U520_HUMAN
The “Fold change (+UV/-UV)” value of the first is higher: 0.6154 for the first, 0.6129 for the second.

Going from CCAR2_HUMAN to ZO1_HUMAN, the “Fold change (+UV/-UV)” value rises from 0.75 to 1.

Compared with RBP56_HUMAN, RRP5_HUMAN is lower in “Fold change (+UV/-UV)” value: 1 for the first, 0 for the second.

Compared with ESYT1_HUMAN, SPTN1_HUMAN is lower in “Fold change (+UV/-UV)” value: 1 for the first, 0 for the second.

Compared with SCRIB_HUMAN, TCPH_HUMAN is lower in “Fold change (+UV/-UV)” value: 3 for the first, 1.333 for the second.

First: BRE1B_HUMAN
Second: PABP1_HUMAN
The “Fold change (+UV/-UV)” value of the first is lower: 0.25 for the first, 0.8571 for the second.

Going from XRCC6_HUMAN to COR1C_HUMAN, the “Fold change (+UV/-UV)” value falls from 0.3333 to 0.

First: TPR_HUMAN
Second: IF4A1_HUMAN
The “Fold change (+UV/-UV)” value of the first is lower: 0.6212 for the first, 200 for the second.

Compared with HS90B_HUMAN, FLNA_HUMAN is lower in “Fold change (+UV/-UV)” value: 0.75 for the first, 0.3571 for the second.

Compared with HSP7C_HUMAN, MSH6_HUMAN is lower in “Fold change (+UV/-UV)” value: 0.7407 for the first, 0.5 for the second.

First: ZN207_HUMAN
Second: HNRPU_HUMAN
The “Fold change (+UV/-UV)” value of the first is higher: 1 for the first, 0.6 for the second.

Compared with KPYM_HUMAN, RIF1_HUMAN is lower in “Fold change (+UV/-UV)” value: 1.667 for the first, 1 for the second.

Going from MCM7_HUMAN to NU205_HUMAN, the “Fold change (+UV/-UV)” value rises from 0.3333 to 0.6667.

Going from PRP8_HUMAN to RBM25_HUMAN, the “Fold change (+UV/-UV)” value falls from 0.32 to 0.

First: FTO_HUMAN
Second: I2BP2_HUMAN
The “Fold change (+UV/-UV)” value of the first is higher: 1 for the first, 0.3333 for the second.

Compared with DNMT1_HUMAN, BRE1A_HUMAN is higher in “Fold change (+UV/-UV)” value: 0 for the first, 0.1667 for the second.

First: GUAA_HUMAN
Second: PRKDC_HUMAN
The “Fold change (+UV/-UV)” value of the first is higher: 0.6364 for the first, 0.5 for the second.

Compared with SMCA5_HUMAN, H12_HUMAN is higher in “Fold change (+UV/-UV)” value: 0 for the first, 700 for the second.

Compared with HNRPK_HUMAN, HEAT1_HUMAN is lower in “Fold change (+UV/-UV)” value: 1.273 for the first, 0 for the second.

Compared with ENPL_HUMAN, XRCC5_HUMAN is lower in “Fold change (+UV/-UV)” value: 1.25 for the first, 0.5 for the second.
